The text below walks through data of patent publication US10633389B2, “CARM1 inhibitors and uses thereof” (Epizyme, Inc., priority 2013, dated 2020).

The test system of this assay is asymmetric di-methyl PABP1 in RKO cells. Put plainly: RKO methylation assay, In Cell Western (ICW) for asymmetric di-methyl PABP1. The assay is classed as cell-based. Conditions: Homo sapiens, RKO, Cellular potencies, ICW PABP1me2a. Put shortly: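 RKO cells treated with compound for 48 h at 37 °C, then fixed, permeabilized and immunostained for asymmetric di-methyl PABP1, with DRAQ5 as DNA stain. Infrared 700/800 nm signal ratio normalized to DMSO and 20 μM reference-compound controls; IC50 from triplicate wells.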
A word on the IC50: it is the concentration at which inhibition is half-maximal. Low readings indicate higher potency, high ones lower potency. In turn, `CNC[C@@H](O)COc1ccc(Cl)c(-c2nc(N[C@H]3CCO[C@@H](C)C3)c(Cl)c(-c3c(C)noc3C)n2)c1` [Example 149-3] yielded a 50% inhibitory concentration (IC50) of less than 5 µM. Turning to `CNCC(O)COc1cccc(-c2nc(N[C@@H]3CCOC3)c(C)c(N3CCNCC3)n2)c1` (some centres unmarked) [Example 422-1a], the IC50 was 10 to 20 µM. The figure for `CNCC(O)COc1cccc(-c2nc(-c3c(C)noc3C)c(C)c(N3CC(NC(=O)OC)C3)n2)c1` (centres unmarked) [Example 12-3] is less than 5 µM; for `CNCC(O)COc1cccc(-c2nc(N(C)C3CCOCC3)cc(-n3cccn3)n2)c1` (centres unmarked) [Example 542-1a] it is 10 to 20 µM. `CNC[C@@H](O)COc1ccc(Cl)c(-c2nc(-c3c(C)noc3C)c(C)c(N3CC4(CCN(C(=O)OC)C4)C3)n2)c1` [Example 175-3] had a half-inhibitory concentration (IC50) of less than 5 µM. The same measure for `CNCC(O)COc1cccc(-c2nc(NC3(C)CCOCC3)c(F)c(-c3c(C)noc3C)n2)c1` (centres unmarked) [Example 159-1a]: 10 to 20 µM; for `CNC[C@@H](O)COc1ccc(Cl)c(-c2nc(N[C@H]3CCO[C@H](C)C3)c(C)c(-c3c(C)noc3C)n2)c1` [Example 196-3]: less than 5 µM. The figure for `CCS(=O)(=O)N1CCC(Nc2nc(-c3cccc(OCC(O)CNC)c3)nc(-c3c(C)noc3C)c2C)CC1` (centres unmarked) [Example 168-1a] is less than 5 µM. Molecule `CNCC(O)COc1cccc(-c2nc(N[C@@H]3CCOC3)c(C)c(N3CCN(C(C)=O)[C@@H](C)C3)n2)c1` (some centres unmarked) [Example 396-1a] returned an IC50 of 10 to 20 µM.

With `CNC[C@@H](O)COc1ccc(Cl)c(-c2nc(-c3c(C)noc3C)c(C)c(N3Cc4cn[nH]c4C3)n2)c1` [Example 231-3], the IC50 was less than 5 µM. The same measure for `CNC[C@@H](O)COc1ccc(Cl)c(-c2nc(NC3CC(F)C3)c(C)c(-c3c(C)noc3C)n2)c1` (some centres unmarked) [Example 188-3]: less than 5 µM; for `CNCC(O)COc1cccc(-c2nc(N[C@H]3C[C@H](C(=O)OC)C3)c(C)c(-c3c(C)noc3C)n2)c1` (some centres unmarked) [Example 221-1a]: less than 5 µM; for `CNC[C@@H](O)COc1ccc(Cl)c(-c2nc(-c3c(C)noc3C)c(C)c(N3CC4(CCCOC4)C3)n2)c1` [Example 119-3]: less than 5 µM. As to `CNCC(O)COc1cccc(-c2nc(-c3cn(C)c(C)n3)cc(N(C)C3CCOCC3)n2)c1` (centres unmarked) [Example 529-1a], the half-inhibitory concentration (IC50) fell in the range of 5 to 10 µM.

As for `CNCC(O)COc1cccc(-c2nc(-c3c(C)noc3C)c(C)c(N3CCO[C@H](CO)C3)n2)c1` (some centres unmarked) [Example 125-1a], the IC50 is less than 5 µM. Turning to `CNC[C@@H](O)COc1ccc(Cl)c(-c2nc(-c3c(C)noc3C)c(C)c(N3CC4(CCN(C(=O)OC(C)C)CC4)C3)n2)c1` [Example 284-3], the IC50 is less than 5 µM.

In turn, `CNCC(O)COc1cccc(-c2nc(-c3c(C)noc3C)c(C)c(N3CCO[C@H](CNC)C3)n2)c1` (some centres unmarked) [Example 124-1a] came in with an IC50 of 5 to 10 µM.

For `CNCC(O)COc1ccc(Cl)c(-c2nc(NC3CC4(CC4)C3)c(C)c(-c3c(C)noc3C)n2)c1` (centres unmarked) [Example 218-3], the concentration for half-maximal inhibition (IC50) is less than 5 µM. With `CNCC(O)COc1cccc(-c2nc(-c3c(C)noc3C)cc(N(C)C3CCN(C(=O)OC)CC3)n2)c1` (centres unmarked) [Example 90-1a], the concentration for half-maximal inhibition (IC50) was less than 5 µM. As for `CNCC(O)COc1ccc(Cl)c(-c2nc(N[C@H]3CCC[C@@H](OC)C3)c(C)c(-c3c(C)noc3C)n2)c1` (some centres unmarked) [Example 57-3], the IC50 is less than 5 µM. For `CNCC(O)COc1cccc(-c2nc(NC3CCOCC3C)c(C)c(-c3c(C)noc3C)n2)c1` (centres unmarked) [Example 269-1a], the half-maximal inhibitory concentration (IC50) is less than 5 µM. The figure for `CNCC(O)COc1ccc(Cl)c(-c2nc(NCC3CCCCO3)c(C)c(-c3c(C)noc3C)n2)c1` (centres unmarked) [Example 31-3] is less than 5 µM; for `CNCC(O)COc1cccc(-c2nc(NC3CCN(C(=O)C4CC4)CC3)c(C)c(-c3c(C)noc3C)n2)c1` (centres unmarked) [Example 245-1a] it is less than 5 µM; for `CNCC(O)COc1cc(Cl)cc(-c2nc(-c3ccncc3)cc(N3CCOCC3)n2)c1` (centres unmarked) [Example 632-1a] it is no less than 20 µM. The same measure for `CNC[C@H](O)COc1ccc(F)c(-c2nc(-c3c(C)noc3C)c(C)c(N3Cc4cccnc4C3)n2)c1` [Example 91-3]: less than 5 µM; for `CNC[C@@H](O)COc1ccc(Cl)c(-c2nc(-c3c(C)noc3C)c(F)c(N3Cc4nccnc4C3)n2)c1` [Example 297-3]: less than 5 µM. As to `CNCC(O)COc1cccc(-c2nc(N[C@@H]3CCOC3)c(C)c(N3CCN(S(C)(=O)=O)CC3)n2)c1` (some centres unmarked) [Example 434-1a], the 50% inhibitory concentration (IC50) is less than 5 µM.

In turn, `CCOC(=O)N1CCOC[C@@H]1CNc1nc(-c2cccc(OCC(O)CNC)c2)nc(-c2c(C)noc2C)c1C` (some centres unmarked) [Example 206-1a] registered an IC50 of less than 5 µM. The figure for `CNC[C@@H](O)COc1ccc(Cl)c(-c2nc(-c3c(C)noc3C)c(C)c(N3CCC4(CC3)CN(C3CC3)C4)n2)c1` [Example 158-3] is less than 5 µM; for `CNCC(O)COc1cccc(-c2nc(N[C@@H]3C[C@H]4CC[C@@H](C3)N4C(=O)OC)c(C)c(-c3c(C)noc3C)n2)c1` (some centres unmarked) [Example 265-1a] it is less than 5 µM. The figure for `CNC[C@@H](O)COc1ccc(Cl)c(-c2nc(-c3c(C)noc3C)c(C)c(N3Cc4cc(OC)cnc4C3)n2)c1` [Example 232-3] is less than 5 µM. Regarding `CNCC(O)COc1cccc(-c2nc(N[C@@H]3CCC[C@@H]3O)c(C)c(-c3c(C)noc3C)n2)c1` (some centres unmarked) [Example 250-1a], the IC50 was less than 5 µM. The figure for `CNCC(O)COc1cccc(-c2nc(NC)cc(-c3c(C)noc3C)n2)c1` (centres unmarked) [Example 27-1a] is 10 to 20 µM; for `CNC[C@@H](O)COc1ccc(Cl)c(-c2nc(N[C@H]3COC[C@@H]3O)c(C)c(-c3c(C)noc3C)n2)c1` [Example 209-3] it is less than 5 µM.

The molecule `CNC[C@@H](O)COc1ccc(Cl)c(-c2nc(NC3CCN(C(=O)OC)CC3)c(C)c(-c3c(C)noc3C)n2)c1` [Example 104-3] displayed an IC50 of less than 5 µM.

Take `CNC[C@H](O)COc1ccc(F)c(-c2nc(-c3c(C)noc3C)c(C)c(N3CCC4(CC3)CN(C(=O)OC)C4)n2)c1` [Example 84-3]: the IC50 was less than 5 µM. The figure for `CNCC(O)COc1cccc(-c2nc(NC3CCCN(C(=O)OC)C3)c(C)c(-c3c(C)noc3C)n2)c1` (centres unmarked) [Example 201-1a] is less than 5 µM. In turn, `CNC[C@@H](O)COc1cccc(-c2nc(-c3cnc4cnccn34)cc(N(C)C3CCOCC3)n2)c1` [Example 507-1a] had an IC50 of less than 5 µM. In turn, `CNCC(O)COc1cc(Cl)cc(-c2nc(-c3cn[nH]c3)c(C)c(N(C)C3CCOCC3)n2)c1` (centres unmarked) [Example 617-1a] displayed an IC50 of 10 to 20 µM. Turning to `CNCC(O)COc1cccc(-c2nc(NC3CCOC3)c(C)c(N3CCN(CCF)CC3)n2)c1` (centres unmarked) [Example 446-1a], the IC50 is less than 5 µM. The figure for `CNCC(O)COc1cccc(-c2nc(N[C@@H]3CCOC3)c(C)c(N3CCn4ccnc4C3)n2)c1` (some centres unmarked) [Example 359-1a] is 10 to 20 µM; for `CNCC(O)COc1ccc(Cl)c(-c2nc(NCC3CCOCC3)c(C)c(-c3c(C)noc3C)n2)c1` (centres unmarked) [Example 9-3] it is less than 5 µM; for `CNCC(O)COc1cccc(-c2nc(-c3c(C)noc3C)c(C)c(N3CCC[C@@H](NC)C3)n2)c1` (some centres unmarked) [Example 177-1a] it is 5 to 10 µM.

`CNCC(O)COc1cccc(-c2nc(NC3CCC[C@H]3O)c(C)c(-c3c(C)noc3C)n2)c1` (some centres unmarked) [Example 219-1a] returned a 50% inhibitory concentration (IC50) of less than 5 µM.

`CNCC(O)COc1ccc(Cl)c(-c2nc(NC3CCOCC3)c(C)c(-c3c(C)noc3C)n2)c1` (centres unmarked) [Example 29-3]: the half-inhibitory concentration (IC50) is less than 5 µM. For the molecule `CNCC(O)COc1cccc(-c2nc(NCC3(O)CCOCC3)c(C)c(-c3c(C)noc3C)n2)c1` (centres unmarked) [Example 114-1a], the half-inhibitory concentration (IC50) fell in the range of 10 to 20 µM. The same measure for `CNC[C@@H](O)COc1ccc(Cl)c(-c2nc(NC3CCN(C)CC3(F)F)c(C)c(-c3c(C)noc3C)n2)c1` (some centres unmarked) [Example 258-3]: less than 5 µM; for `CC[C@H]1CN(c2nc(-c3cccc(OCC(O)CNC)c3)nc(-c3c(C)noc3C)c2C)CCN1S(=O)(=O)CC` (some centres unmarked) [Example 154-1a]: less than 5 µM. The same measure for `CNCC(O)COc1cccc(-c2nc(-c3c(C)noc3C)cc(N3CCN(CCF)CC3)n2)c1` (centres unmarked) [Example 68-1a]: 5 to 10 µM; for `CNC[C@@H](O)COc1ccc(Cl)c(-c2nc(-c3c(C)noc3C)c(C)c(N3CCC3C)n2)c1` (some centres unmarked) [Example 207-3]: less than 5 µM. The same measure for `CNCC(O)COc1cccc(-c2nc(-c3cnc4c(C(=O)N(C)C)cnn4c3)cc(N(C)C3CCOCC3)n2)c1` (centres unmarked) [Example 514-1a]: 5 to 10 µM. The molecule `CNC[C@H](O)COc1ccc(F)c(-c2nc(N[C@H]3CCN(C(=O)OC)C[C@H]3F)c(C)c(-c3c(C)noc3C)n2)c1` [Example 63-3] had an IC50 of less than 5 µM.

In the case of `CNCC(O)COc1cccc(-c2nc(NC3CCOC3)c(C)c(N3CCN(C)C(C)(C)C3)n2)c1` (centres unmarked) [Example 455-1a], the IC50 is less than 5 µM. The same measure for `CNCC(O)COc1cccc(-c2nc(N[C@@H]3CCOC3)c(C)c(N3C[C@H]4C[C@@H]3CN4C)n2)c1` (some centres unmarked) [Example 443-1a]: 10 to 20 µM. `CNCC(O)COc1cccc(-c2nc(NCC3CCOCC3)cc(-c3c(C)noc3C)n2)c1` (centres unmarked) [Example 78-1a] came in with an IC50 of 5 to 10 µM.

The molecule `CNC[C@@H](O)COc1ccc(Cl)c(-c2nc(-c3c(C)noc3C)c(C)c(C3CCOCC3)n2)c1` [Example 268-3] gave a half-inhibitory concentration (IC50) of less than 5 µM.
